Source: patent publication US9198916B1, “Compounds and methods for treating tumors” (B&G Partners, LLC, priority 2014, dated 2015)
Read-outs that look alike come from different tables or passages of the source.

Assays:
[1] = Repeated dose intraperitoneal (IP) BID study in mice, plasma concentration by LC-MS/MS and PK fit; set-up: species or system female CD-1 mice; details: female, CD-1, mouse, in vivo, fitted, repeated-dose single-compartment first-order absorption model, 10 mg/kg IP BID; for half-life: ip, 10 mg/kg
Experimental: A total of 204.47 mg of the compound of Example 1 was weighed out in a sterile vial on an analytical balance, and a 10.22 ml volume of sterile DMSO containing 5% by volume sterile Tween 80 was added to the vial under a Class II sterile hood and mixed until fully dissolved to produce a 20 mg/ml stock solution of the compound of Example 1. The stock solution was split into 1.2 ml aliquots in sterile glass vials and stored frozen at −80° C.
Sterile 1.0 mg/ml injection solution of the compound of Example 1 was formulated in normal saline containing 4.75% DMSO and 0.25% Tween 80. A visible precipitate formed without the addition of at least 0.1% Tween 80. The injection solution was prepared by thawing one aliquot of sterile 20 mg/ml stock solution, and adding 0.526 cc of stock solution to a 10 ml sterile vial of USP 0.9% sodium chloride for injection (Hospira) to yield the desired concentrations of 1.0 mg/ml o the compound of Example 1, 4.75% DMSO, and 0.25% Tween 80. The injection solution was gently mixed until fully dissolved. […] Injection solution was stored at 4° C. for up to five days after preparation, after which it was considered expired and discarded.
A total of 16 female CD-1 mice with an age of approximately 8-10 weeks (25-30 g) were used in this repeated dosing study. Each animal was weighed on the days 1, 4, 8, 11, and 15 during treatment. A 10 mg/kg dose of the compound of Example 1 was provided by IP injection of 10 ml/kg of 1.0 mg/ml injection solution to each animal every 12.0±0.5 hr. The injection solution was removed from the refrigerator and allowed to warm at room temperature for several minutes. The septum of the injection solution was wiped with sterile alcohol, and animals received 10 ml/kg by individual insulin syringes (one syringe per animal per injection), with the injection volume calculated using the most recent weighing for each individual animal. IP injections were staggered between the left and right side of the abdomen from one dosing to the next. […] The injection solution was returned to refrigerated storage after the last animal. […]

[2] = biological target: hERG (human ether-à-go-go-related gene) potassium channel current (Homo sapiens, UniProt Q12809); assay: cell-based
Experimental: All chemicals used in solution preparation were purchased from Sigma-Aldrich (St. Louis, Mo.) unless otherwise noted and were of ACS reagent grade purity or higher.
The duration of exposure to each test article concentration was 3 minutes.

Chain of hERG (human ether-à-go-go-related gene) potassium channel current (Q12809 whole entry): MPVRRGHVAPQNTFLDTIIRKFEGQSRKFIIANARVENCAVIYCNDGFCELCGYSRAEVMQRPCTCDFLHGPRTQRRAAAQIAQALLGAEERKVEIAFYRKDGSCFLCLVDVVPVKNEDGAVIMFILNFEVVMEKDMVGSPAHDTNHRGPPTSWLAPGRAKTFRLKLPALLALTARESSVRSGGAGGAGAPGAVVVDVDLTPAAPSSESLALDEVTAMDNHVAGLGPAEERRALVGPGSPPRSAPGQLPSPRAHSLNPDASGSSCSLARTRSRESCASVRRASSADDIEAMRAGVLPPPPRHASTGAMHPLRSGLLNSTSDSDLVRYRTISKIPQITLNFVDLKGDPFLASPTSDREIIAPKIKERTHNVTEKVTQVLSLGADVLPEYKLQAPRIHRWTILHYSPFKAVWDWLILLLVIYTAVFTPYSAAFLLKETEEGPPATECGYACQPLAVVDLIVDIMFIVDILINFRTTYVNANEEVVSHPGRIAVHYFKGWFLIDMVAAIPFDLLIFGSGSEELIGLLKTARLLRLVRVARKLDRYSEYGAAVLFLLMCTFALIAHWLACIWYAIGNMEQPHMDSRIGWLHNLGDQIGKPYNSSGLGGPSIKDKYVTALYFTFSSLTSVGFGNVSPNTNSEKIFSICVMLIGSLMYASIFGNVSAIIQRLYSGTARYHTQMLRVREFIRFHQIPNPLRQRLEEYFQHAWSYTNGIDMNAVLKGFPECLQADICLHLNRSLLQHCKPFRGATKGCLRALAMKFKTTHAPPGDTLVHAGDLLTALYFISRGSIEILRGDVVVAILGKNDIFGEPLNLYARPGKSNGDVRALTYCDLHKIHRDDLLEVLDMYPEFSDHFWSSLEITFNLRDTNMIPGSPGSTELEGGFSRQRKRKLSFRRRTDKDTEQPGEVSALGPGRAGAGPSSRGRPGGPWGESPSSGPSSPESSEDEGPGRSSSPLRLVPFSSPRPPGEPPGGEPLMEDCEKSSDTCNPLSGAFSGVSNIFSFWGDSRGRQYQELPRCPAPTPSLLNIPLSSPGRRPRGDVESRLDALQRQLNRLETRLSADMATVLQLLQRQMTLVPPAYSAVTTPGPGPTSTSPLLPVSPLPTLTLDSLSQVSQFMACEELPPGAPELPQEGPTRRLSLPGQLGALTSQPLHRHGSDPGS

With `CSc1ccc2c(c1)N(CCC1CCCCN1)c1ccccc1S2.Cl` (stereo not shown) [Example 1, 2-(methylsulfanyl)-10-[2-(piperidin-2-yl)ethyl]-10H-phenothiazine hydrochloride] the Vd/F ([1]; read-out: apparent volume of distribution (V/F)) was 8 L/kg, the half-life ([1]; read-out: absorption half-life (converted)) was 0.48 h and the half-life ([1]; read-out: elimination half-life (converted)) was 14.7 h. For the same compound, the IC50 [2] was 1550 nM.
